Laboratory results published in patent publication US9988405B2, “O-phenyl chalcone compounds and uses thereof” (Neopanora Bio-technology (Zhuhai) Ltd., priority 2014, dated 2018).
Read-outs that look alike come from different tables or passages of the source.

How the values were obtained:
Format in all cases: cell-based
[1] = test system: incristine resistant human ileocecum carcinoma cell HCT-8/VCT; experiment: SRB anti-proliferative assay, drug-resistant HCT-8/VCT; settings: HCT8/VCT, read-out: Anti-proliferative IC50, HCT-8/VCT
Method: (§1) The present example evaluated the anti-tumor activity of the molecules provided by the present invention. The present example mainly used a method with SRB (sulforhodamine B) dying, in which proteins in the cell were stained with SRB dye to determine protein content in the cell so as to characterize cell growth density. Firstly, the test compound was formulated into a stock solution (10 mM), which was stored at 4° C. in a refrigerator. Prior to beginning the assay, the stock solution was diluted with DMSO into a series of different concentrations. The required concentrations were obtained by diluting with complete growth medium. Well growing cells were seeded in a 96-well plate (5000 cells/well, 100 uL) and cultured in an incubator at 37° C., 5% CO2, and 90% RH. 24 h later, the prepared compound solution (100 μL) was slowly added to cell solution in the 96-well plate, and the well with DMSO (final concentration 0.5%) instead of the drug was used as a drug free control. The plate was incubated for 48 h. In addition, a day 0 plate that was drug free was directly detected after cell seeded in the plate for 24 h. The 96-well plate was taken out and added with trichloroacetic acid (50 μL, final concentration 10%). The plate was incubated at 4° C. for 1 h to fix the cells.
(§2) The plate was washed with ultrapure water and air-dried. The plate was then stained with SRB dye (0.4% in 1% acetic acid, 100 μL) for 30 min at room temperature. The plate was then washed with 1% acetic acid and then air-dried. A Tris base solution (100 μL, 10 mM, pH10.4) was added, after which the plate was gently shaken for 1 h on an orbital shaker to ensure that the dyes were completed dissolved. The optical density (OD) was recorded on a TECAN Infinite M200 Pro multimode reader at 515 nm. The cell growth (% of control)=(OD value of wells added with drug−mean OD value of Day 0 plate)/(OD value of DMSO drug-free control well−mean OD value of Day 0 plate)*100.
(§3) We also evaluated the anti-proliferation activities of selected compounds against drug-resistant cancer cell lines.

[2] = test system: Paclitaxel-resistant human ovarian carcinoma cell A2780/TAX; experiment: SRB anti-proliferative assay, drug-resistant A2780/TAX; settings: read-out: Anti-proliferative IC50, A2780/TAX
Method: as §1, §2, §3

[3] = test system: cis-platinum resistant human lung cancer cell A549/CDDP; experiment: SRB anti-proliferative assay, drug-resistant A549/CDDP; settings: read-out: Anti-proliferative IC50, A549/CDDP
Method: as §1, §2, §3

[4] = test system: human liver cancer cell HepG2; experiment: SRB anti-proliferative assay, HepG2; settings: read-out: Anti-proliferative IC50, HepG2
Method: as §1, §2

[5] = test system: human colon cancer cells SW480; experiment: SRB anti-proliferative assay, SW480; settings: read-out: Anti-proliferative IC50, SW480
Method: as §1, §2

[6] = test system: doxorubicin resistant breast cancer cell MCF-7/DOX; experiment: SRB anti-proliferative assay, drug-resistant MCF-7/DOX; settings: Homo sapiens, MCF7-DOX, read-out: Anti-proliferative IC50, MCF-7/DOX
Method: as §1, §2, §3

[7] = test system: human lung cancer cells A549; experiment: SRB anti-proliferative assay, A549; settings: read-out: Anti-proliferative IC50, A549
Method: as §1, §2

[8] = test system: human breast cancer cells MCF7; experiment: SRB anti-proliferative assay, MCF-7; settings: read-out: Anti-proliferative IC50, MCF-7
Method: as §1, §2

[9] = test system: human nasopharyngeal carcinoma cells CNE2; experiment: SRB anti-proliferative assay, CNE2; settings: read-out: Anti-proliferative IC50, CNE2
Method: as §1, §2

[10] = test system: human ovary cancer cells A2780; experiment: SRB anti-proliferative assay, A2780; settings: read-out: Anti-proliferative IC50, A2780
Method: as §1, §2

[11] = test system: human colon cancer cells HCT8; experiment: SRB anti-proliferative assay, HCT-8; settings: read-out: Anti-proliferative IC50, HCT-8
Method: as §1, §2

[12] = vincristine-resistant HCT-8/VCT, SRB
[13] = paclitaxel-resistant A2780/TAX, SRB
[14] = cis-platinum resistant A549/CDDP, SRB
[15] = doxorubicin resistant MCF-7/DOX, SRB

| IC50 [1, 12] | IC50 [2, 13] | IC50 [3, 14] | IC50 ([4]; HepG2, SRB, 48 h) | IC50 ([5]; SW480, SRB, 48 h) | IC50 [6, 15] | IC50 ([7]; A549, SRB, 48 h) | IC50 ([8]; MCF7, MCF-7, SRB, 48 h) | IC50 ([9]; CNE-2, CNE2, SRB, 48 h) | IC50 ([10]; A2780, SRB, 48 h) | IC50 ([11]; HCT-8, SRB, 48 h) | Structure (SMILES) | also measured |
| --- | --- | --- | --- | --- | --- | --- | --- | --- | --- | --- | --- | --- |
| 112 nM | 95 nM | 118 nM | 44 nM | 87 nM | 75 nM | 88 nM | 124 nM | 46 nM | 89 nM | 99 nM | CN(C)c1ccc(/C=C/C(=O)c2ccccc2-c2cccc(F)c2)cc1Br [compound 15, (E)-1-(3′-Fluoro[1,1′-biphenyl]-2-yl)-3-(3-bromo-4-(Dimethylamino)phenyl)prop-2-en-1-one] |  |
| 69 nM | 123 nM | 74 nM | 18 nM | 16 nM | 11 nM | 18 nM | 49 nM | 19 nM | 16 nM | 20 nM | O=C(/C=C/c1ccc(O)c(S(=O)(=O)O)c1)c1ccccc1-c1cccc(F)c1 [compound 21, (E)-5-(3-(3′-Fluoro[1,1′-biphenyl]-2-yl)-3-oxoprop-1-en-1-yl)-2-Hydroxybenzenesulfonic acid] |  |
| 62 nM | 53 nM | 42 nM | 12 nM | 10 nM | 3 nM | 14 nM | 42 nM | 16 nM | 10 nM | 12 nM | COc1ccc(/C=C/C(=O)c2ccccc2-c2cccc(F)c2)cc1S(=O)(=O)O [compound 23, (E)-5-(3-(3′-Fluoro[1,1′-biphenyl]-2-yl)-3-oxoprop-1-en-1-yl)-2-methoxy benzenesulfonic acid] |  |
| 157 nM | 143 nM | 232 nM | 34 nM | 57 nM | 43 nM | 64 nM | 92 nM | 35 nM | 38 nM | 42 nM | Nc1cccc(/C=C/C(=O)c2ccccc2-c2cccc(F)c2)c1 [compound 19, (E)-1-(3′-Fluoro[1,1′-biphenyl]-2-yl)-3-(3-aminophenyl)prop-2-en-1-one] |  |
| 117 nM | 130 nM | 317 nM | 44 nM | 48 nM | 26 nM | 44 nM | 87 nM | 55 nM | 39 nM | 36 nM | O=C(/C=C/c1cccc(O)c1)c1ccccc1-c1cccc(F)c1 [compound 12, (E)-1-(3′-Fluoro[1,1′-biphenyl]-2-yl)-3-(3-hydroxy)prop-2-en-1-one] |  |
| 2600 nM |  | 9 nM |  |  |  |  |  |  |  |  | CC(=O)O[C@H]1C(=O)[C@@]2(C)[C@H]([C@H](OC(=O)c3ccccc3)[C@]3(O)C[C@H](OC(=O)[C@H](O)[C@@H](NC(=O)c4ccccc4)c4ccccc4)C(C)=C1C3(C)C)[C@]1(OC(C)=O)CO[C@@H]1C[C@@H]2O [TAX, paclitaxel, reference compound] |  |
| 86 nM | 55 nM | 68 nM | 37 nM | 44 nM | 32 nM | 48 nM | 48 nM | 25 nM | 73 nM | 92 nM | CN(C)c1ccc(/C=C/C(=O)c2ccccc2-c2cccc(F)c2)cc1 [compound 7, (E)-3-(4-(Dimethylamino)phenyl)-1-(3′-fluoro[1,1′-biphenyl]-2-yl)prop-2-en-1-one] |  |
|  |  |  |  |  |  |  |  |  |  |  | COc1ccc(/C=C/C(=O)c2ccccc2-c2ccc(F)cc2)cc1OP(=O)(O)O [compound 11, (E)-(5-(3-(4′-Fluoro[1,1′-biphenyl]-2-yl)-3-oxoprop-1-en-1-yl)-2-Methoxyphenol) phosphate ester] | IC50 [1]: 263 nM; IC50 ([2]; A2780/TAX): 125 nM; IC50 ([3]; A549/CDDP): 301 nM; IC50 ([4]; HepG2, 48 h): 39 nM; IC50 ([5]; SW480, 48 h): 22 nM; IC50 [6]: 26 nM; IC50 ([7]; A549, 48 h): 23 nM; IC50 ([8]; MCF7, 48 h): 96 nM; IC50 ([9]; CNE-2, 48 h): 52 nM; IC50 ([10]; A2780, 48 h): 65 nM; IC50 ([11]; HCT-8, 48 h): 88 nM |
| 420 nM | 496 nM | 430 nM | 23 nM | 47 nM | 38 nM | 65 nM | 116 nM | 33 nM | 47 nM | 68 nM | O=C(O)c1ccc(/C=C/C(=O)c2ccccc2-c2cccc(F)c2)cc1 [compound 18] |  |
| 166 nM | 149 nM | 135 nM | 71 nM | 52 nM | 75 nM | 86 nM | 106 nM | 36 nM | 106 nM | 123 nM | O=C(/C=C/c1ccc(N2CCCC2)cc1)c1ccccc1-c1cccc(F)c1 [compound 16, (E)-1-(3′-Fluoro[1,1′-biphenyl]-2-yl)-3-(4-pyrrolidine-1-yl)prop-2-en-1-one] |  |
| 386 nM | 375 nM | 468 nM | 65 nM | 43 nM | 132 nM | 88 nM | 128 nM | 61 nM | 122 nM | 102 nM | N#Cc1ccc(/C=C/C(=O)c2ccccc2-c2cccc(F)c2)cc1 [compound 14, (E)-1-(3′-Fluoro[1,1′-biphenyl]-2-yl)-3-(4-cyanophenyl)prop-2-en-1-one] |  |
| 3420 nM | 1940 nM | 290 nM | 170 nM | 98 nM | 14600 nM | 291 nM | 138 nM | 75 nM | 83 nM | 165 nM | COc1cccc2c1C(=O)c1c(O)c3c(c(O)c1C2=O)C[C@@](O)(C(=O)CO)C[C@@H]3O[C@H]1C[C@H](N)[C@H](O)[C@H](C)O1 [DOX, doxorubicin, reference compound] |  |
| 37 nM | 43 nM | 69 nM | 9 nM | 6 nM | 5 nM | 11 nM | 69 nM | 15 nM | 10 nM | 14 nM | CN(C)c1ccc(/C=C/C(=O)c2ccccc2-c2cccc(F)c2)cc1O [compound 13, (E)-1-(3′-Fluoro[1,1′-biphenyl]-2-yl)-3-(3-hydroxy-4-(Dimethylamino)phenyl)prop-2-en-1-one] |  |
| 119 nM | 120 nM | 221 nM | 29 nM | 49 nM | 54 nM | 45 nM | 79 nM | 21 nM | 35 nM | 28 nM | O=C(O)c1cccc(/C=C/C(=O)c2ccccc2-c2cccc(F)c2)c1 [compound 20] |  |
| 1920 nM | 927 nM | 56 nM |  |  | 4250 nM |  |  |  |  |  | CC[C@]1(O)C[C@H]2CN(CCc3c([nH]c4ccccc34)[C@@](C(=O)OC)(c3cc4c(cc3OC)N(C=O)[C@H]3[C@@](O)(C(=O)OC)[C@H](OC(C)=O)[C@]5(CC)C=CCN6CC[C@]43[C@@H]65)C2)C1 [VCT, vincristine, reference compound] |  |
